A word on the inhibition in vivo: it is how much of the control response was suppressed. A lower inhibition in vivo goes with a response near the control.

The text below walks through data of ChEMBL document CHEMBL1129877, “Design, synthesis and biological evaluation of 1,3-diaminopropanes: a new class of polyamine analogs as leishmanicidal agents” (1997).

Holding throughout (assay type): functional
Experiment [1] deals with Leishmania donovani. As to the kind of experiment: In vivo anti-leishmanial activity to Leishmania donovani infected hamster after intraperitoneal dose of 50 mg/kg X 5 on day 7th. To be noted: ip.
A short description of experiment [2]: Tested in vivo for anti-leishmanial activity against Leishmania donovani infected hamster intraperitoneal dose of 25 mg/kg X 5 on day 7th. To be noted: ip.
Experiment [3] can be described thus: Tested in vivo for anti-leishmanial activity against Leishmania donovani infected hamster auratus after oral dose of 50 mg/kg X 5 on day 7th.
Experiment [4] is described as follows: Tested in vivo for anti-leishmanial activity against Leishmania donovani infected hamster intraperitoneal dose of 100 mg/kg X 5 on day 7th. Particulars: ip.
Experiment [5] is described as follows: Tested in vivo for anti-leishmanial activity against Leishmania donovani infected hamster auratus after oral dose of 25 mg/kg X 5 on day 7th.

In experiment [1], `CC1CCN(CCCN2CCCNC2=O)CC1` registered an inhibition in vivo at 50 mg/kg of 60.8%. In experiment [1], `COC(=O)/N=C(\NCCCN1CCCCC1)NC(=O)OC` came in with an inhibition in vivo at 50 mg/kg of 56.2%.

Compound `N#CCCNCCCN1CCCCC1` returned an inhibition in vivo at 50 mg/kg in experiment [1] of 64.8%. In turn, `NCCCN1CCOCC1` displayed an inhibition in vivo at 50 mg/kg in experiment [1] of 45.8%. Same read-out and setting: next, `CN1CCN(CCCN2CCCNC2=O)CC1`: 52.1%; `N#CCCNCCCN1CCC(c2ccccc2)CC1`: 43.4%.

In the case of `CN1CCN(CCCN)CC1`, the inhibition in vivo at 50 mg/kg in experiment [1] is 66.9%. `O=C1NCCCN1CCCN1CCCCC1`: at 50 mg/kg the inhibition in vivo in experiment [1] was 43%. Compound `N=C(N)NCCCN1CCC(c2ccccc2)CC1` gave an inhibition in vivo at 50 mg/kg in experiment [1] of 57.7%.

For the compound `NCCCN1CCCCC1`, in experiment [1], the inhibition in vivo at 50 mg/kg stood at 52.4%.

In turn, `N#CCCNCCCN1CCN(c2ccccc2)CC1` returned an inhibition in vivo at 50 mg/kg in experiment [1] of 71%. Besides, the inhibition in vivo at 25 mg/kg in experiment [2] stood at 71.2%. `COC(=O)/N=C(\NCCCN1CCC(C)CC1)NC(=O)OC`: the inhibition in vivo at 50 mg/kg came to 76.8% in experiment [3] and 78.4% in experiment [1]. For the same compound, the inhibition in vivo at 25 mg/kg in experiment [2] was 80.9%; in experiment [5], 77.6%. The compound further returned an inhibition in vivo at 100 mg/kg in experiment [4] of 46.4%.

In the case of `CN1CCN(CCCN=C(N)N)CC1`, the inhibition in vivo at 50 mg/kg in experiment [1] came out at 45.1%. On to `CC1CCN(CCCNCCC#N)CC1`, for which, in experiment [1], the inhibition in vivo at 50 mg/kg came out at 45%.

`CC1CCN(CCCN)CC1` had an inhibition in vivo at 50 mg/kg in experiment [1] of 54.5%.

As to `COC(=O)/N=C(\NCCCN1CCN(c2ccccc2)CC1)NC(=O)OC`, at 50 mg/kg the inhibition in vivo in experiment [1] was 73.8%. For `NCCCN1CCC(c2ccccn2)CC1`, 50 mg/kg produced 48.7% inhibition in vivo in experiment [1]. The same measure, in the same setting: next, `COC(=O)/N=C(\NCCCN1CCOCC1)NC(=O)OC`: 80.2%; `CCN1CCCN(CCCN2CCCCC2)C1=O`: 41.2%. As to `COC(=O)/N=C(\NCCCN1CCC(c2ccccn2)CC1)NC(=O)OC`, the inhibition in vivo at 50 mg/kg in experiment [1] was determined as 72.8%. In experiment [2], this compound gave an inhibition in vivo at 25 mg/kg of 73.2%. In the case of `CCN1CCCN(CCCN2CCC(C)CC2)C1=O`, the inhibition in vivo at 50 mg/kg in experiment [1] was 25%.

In turn, `CN1CCN(CCCNCCC#N)CC1` registered an inhibition in vivo at 50 mg/kg in experiment [1] of 78.1%. `COC(=O)/N=C(\NCCCN1CCN(C)CC1)NC(=O)OC` gave an inhibition in vivo at 50 mg/kg in experiment [1] of 85.5%. On the same count and under the same terms, next, `NCCCN1CCN(c2ccccc2)CC1`: 37.2%. The same measure, in the same setting: next, `N=C(N)NCCCN1CCCCC1`: 42.1%; `CC1CCN(CCCN=C(N)N)CC1`: 62.2%; `COC(=O)/N=C(\NCCCN1CCC(c2ccccc2)CC1)NC(=O)OC`: 66.5%. On the same count and under the same terms, next, `NCCCN1CCC(c2ccccc2)CC1`: 66%.
